Experimental data reported in patent publication US8604033B2, “Preparation of 4-amino-thiazoles and 3-amino-1,2,4-thiadiazoles and their use as allosteric modulators of metabotropic glutamate receptors” (Addex Pharma S.A., priority 2010, dated 2013).
Where “and” joins values, the source holds several entries; their conditions need not be identical. Equal entries are not always repeated.

Assays:
[1] = biological target: T1, recombinant human mGluR4a receptors (Homo sapiens, UniProt Q14833); experiment: mGluR4 assay on HEK-expressing human mGluR4 (fluorescent cell based Ca2+ mobilization assay, FLIPR); conditions: HEK-293 cells expressing hmGluR4; enhancement of EC25 glutamate response; mean of at least three independent experiments in duplicate; read-out: Ca^2+ Flux (mean EC50)
T1 construct: expressed in transfected cells
Text: mGluR4 Assay on HEK-Expressing Human mGluR4 The compounds of the present invention are positive allosteric modulators of mGluR4 receptor. Their activity was examined on recombinant human mGluR4a receptors by detecting changes in intracellular Ca^2+ concentration, using the fluorescent Ca^2+-sensitive dye Fluo4-(AM) and a Fluorometric Imaging Plate Reader (FLIPR, Molecular Devices, Sunnyvale, Calif.). The cDNA encoding the human metabotropic glutamate receptor (hmGluR4), (accession number NM_000841.1, NCBI Nucleotide database browser), was subcloned into an expression vector containing also the hygromycin resistance gene. In parallel, the cDNA encoding a G protein allowing redirection of the activation signal to intracellular calcium flux was subcloned into a different expression vector containing also the puromycin resistance gene. Transfection of both these vectors into HEK293 cells with PolyFect reagent (Qiagen) according to supplier's protocol, and hygromycin and puromycin treatment allowed selection of antibiotic resistant cells which had integrated stably one or more copies of the plasmids. Positive cellular clones expressing hmGluR4 were identified in a functional assay measuring changes in calcium fluxes in response to glutamate or selective known mGluR4 orthosteric agonists and antagonists. HEK-293 cells expressing hmGluR4 were maintained in media containing DMEM, dialyzed Fetal Calf Serum (10%), Glutamax™ (2 mM), Penicillin (100 units/mL), Streptomycin (100 μg/mL), Geneticin (100 μg/mL) and Hygromycin-B (40 μg/mL) and puromycin (1 μg/mL) at 37° C./5% CO2. Human mGluR4HEK-293 cells were plated out 24 hours prior to FLIPR^384 assay in black-walled, clear-bottomed, poly-L-ornithine-coated 384-well plates at a density of 25,000 cells/well in a glutamine/glutamate free DMEM medium containing foetal bovine serum (10%), penicillin (100 units/mL) and streptomycin (100 μg/mL) at 37° C./5% CO2. On the day of the assay, the medium was aspirated and the cells were loaded with a 3 μM solution of Fluo4-AM (LuBioScience, Lucerne, Switzerland) in 0.03% pluronic acid. After 1 hour at 37° C./5% CO2, the non incorporated dye was removed by washing cell plate with the assay buffer and the cells were left in the dark at room temperature for […] before testing. All assays were performed in a pH 7.4 buffered-solution containing 20 mM HEPES, 143 mM NaCl, 6 mM KCl, 1 mM MgSO4, 1 mM CaCl2, 0.125 mM sulfapyrazone and 0.1% glucose. After 10 s of basal fluorescence recording, various concentrations of the compounds of the invention were added to the cells. Changes in fluorescence levels were first monitored for 180 s in order to detect any agonist activity of the compounds. Then the cells were stimulated by an EC25 glutamate concentration for an additional 110 s in order to measure enhancing activities of the compounds of the invention. EC25 glutamate concentration is the concentration giving 25% of the maximal glutamate response. The concentration-response curves of representative compounds of the present invention were generated using the Prism GraphPad software (Graph Pad Inc, San Diego, USA). The curves were fitted to a four-parameter logistic equation: (Y=Bottom+(Top−Bottom)/(1+10^((Log EC50−X)*Hill Slope) allowing the determination of EC50 values. The Table 3 below represents the mean EC50 obtained from at least three independent experiments of selected molecules performed in duplicate.

T1 sequence (Q14833 33-912): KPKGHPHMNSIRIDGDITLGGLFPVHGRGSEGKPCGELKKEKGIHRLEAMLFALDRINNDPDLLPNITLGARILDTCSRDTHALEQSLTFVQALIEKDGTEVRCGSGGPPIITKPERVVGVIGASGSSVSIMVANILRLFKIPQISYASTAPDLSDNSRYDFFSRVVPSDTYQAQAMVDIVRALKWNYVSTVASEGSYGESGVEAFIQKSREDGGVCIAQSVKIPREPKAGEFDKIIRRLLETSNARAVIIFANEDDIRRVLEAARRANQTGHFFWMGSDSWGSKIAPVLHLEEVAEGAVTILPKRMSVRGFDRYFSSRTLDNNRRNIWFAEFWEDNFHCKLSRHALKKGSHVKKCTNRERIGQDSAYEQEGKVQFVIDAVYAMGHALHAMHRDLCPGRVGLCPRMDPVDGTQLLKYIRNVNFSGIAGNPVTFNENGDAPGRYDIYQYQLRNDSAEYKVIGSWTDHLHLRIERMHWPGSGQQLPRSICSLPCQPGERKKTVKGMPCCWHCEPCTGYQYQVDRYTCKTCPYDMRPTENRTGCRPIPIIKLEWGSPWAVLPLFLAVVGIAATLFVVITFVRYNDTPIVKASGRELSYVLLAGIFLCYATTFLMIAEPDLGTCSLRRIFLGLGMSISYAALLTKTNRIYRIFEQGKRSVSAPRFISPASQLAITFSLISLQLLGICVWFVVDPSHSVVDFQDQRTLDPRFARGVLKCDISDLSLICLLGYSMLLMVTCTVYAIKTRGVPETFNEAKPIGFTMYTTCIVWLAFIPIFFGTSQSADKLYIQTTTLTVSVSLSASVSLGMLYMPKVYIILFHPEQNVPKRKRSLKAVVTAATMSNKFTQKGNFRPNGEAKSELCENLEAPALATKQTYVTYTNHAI

Row | Structure (SMILES) | melting point | EC50 [1]
1 | FC(F)(F)c1n[nH]cc1-c1nc(Nc2ccccn2)cs1 [Compound 1-8, N-(Pyridin-2-yl)-2-(3-(trifluoromethyl)-1H-pyrazol-4-yl)thiazol-4-amine] | 204 to 206 °C | 100 to 1000 nM
2 | Cc1ccnc(Nc2csc(-c3cn[nH]c3)n2)n1 [Compound 1-4, N-(4-Methylpyrimidin-2-yl)-2-(1H-pyrazol-4-yl)thiazol-4-amine] | 230 to 232 °C | 100 to 1000 nM
3 | COc1ccnc(Nc2csc(-c3cn[nH]c3)n2)n1 [Compound 1-5, N-(4-Methoxypyrimidin-2-yl)-2-(1H-pyrazol-4-yl)thiazol-4-amine] | 250 to 252 °C | 100 to 1000 nM
4 | FC(F)(F)c1n[nH]cc1-c1nc(Nc2ncccn2)cs1 [Compound 1-11, N-(Pyrimidin-2-yl)-2-(3-(trifluoromethyl)-1H-pyrazol-4-yl)thiazol-4-amine] | – | < 100 nM
5 | c1ccc(Nc2csc(-c3cn[nH]c3)n2)nc1 [Compound 1-1, 2-(1H-Pyrazol-4-yl)-N-(pyridin-2-yl)thiazol-4-amine] | 207 to 209 °C and 209 to 210 °C | < 100 nM
6 | c1cnc(Nc2csc(-c3cn[nH]c3)n2)nc1 [Compound 1-7, 2-(1H-Pyrazol-4-yl)-N-(pyrimidin-2-yl)thiazol-4-amine] | 217 °C (dec.) | < 100 nM
7 | Cc1cccc(Nc2csc(-c3cn[nH]c3)n2)n1 [Compound 1-6, N-(6-Methylpyridin-2-yl)-2-(1H-pyrazol-4-yl)thiazol-4-amine] | – | 100 to 1000 nM
8 | c1ccc(Nc2csc(-c3c[nH]nc3C3CC3)n2)nc1 [Compound 1-9, 2-(3-Cyclopropyl-1H-pyrazol-4-yl)-N-(pyridin-2-yl)thiazol-4-amine] | 141.3 °C | < 100 nM
9 | c1ccc(Nc2nsc(-c3cn[nH]c3)n2)nc1 [Compound 1-2, 5-(1H-Pyrazol-4-yl)-N-(pyridin-2-yl)-1,2,4-thiadiazol-3-amine] | – | 100 to 1000 nM
10 | Fc1cccc(Nc2csc(-c3cn[nH]c3)n2)n1 [Compound 1-3, N-(6-Fluoropyridin-2-yl)-2-(1H-pyrazol-4-yl)thiazol-4-amine] | 238 to 240 °C | < 100 nM
11 | c1cnc(Nc2csc(-c3c[nH]nc3C3CC3)n2)nc1 [Compound 1-10, 2-(3-Cyclopropyl-1H-pyrazol-4-yl)-N-(pyrimidin-2-yl)thiazol-4-amine] | 241 °C | < 100 nM
